Laboratory results taken from patent US4029789A, “1-[2'-(α-Furoyl or α-thienoyl)eth-1'-yl]-2-(4"-cinnamyl piperazin-1"-yl methyl)benzimidazoles and method of using same” (Delalande S.A., priority 1974, dated 1977).
“Also recorded” adds a separate entry of the source. Read-outs that look alike come from different tables or passages of the source.

Columns and labels:
constraint ulcers = assay: Constraint ulcers, rat, 7 hours; assay type: in vivo
Experimental: (a) Constraint ulcers: the compounds of formula (I), administered orally, reduce the area of ulcerations caused in a rat placed under constraint. Thus, compound No 73 0466 administered at a dose of 5 mg/kg/po, reduces by 78% the area of the ulcerations caused by being put under constraint for 7 hours.
(§1) .- The anti-ulcerous activity was evaluated by the percentage of protection (quantal response) against ulcers caused in a rat by binding the pylorus or by putting under constraint for 7 hours.
(§2) The products were administered intraduodenally (Shay's ulcer) or orally (constraint ulcer).

[1] = test system: bronchoconstriction caused by acetylcholine; assay: Anti-bronchoconstriction, anaesthetized guinea-pig, acetylcholine i.v. (Konzett and Rossler); assay type: in vivo; conditions: for ED50: Cavia porcellus, iv, compound i.v., read-out: DE 50 (the source's name); for activity by route of administration: i.v. and i.d.; for anti-bronchoconstriction properties (in words): guinea-pig, comparison with compound of patent No 3 862 177
Experimental: (§3) Injected intravenously or intraduodenally, the compounds of formula (I) are capable of opposing bronchoconstriction caused in a guinea-pig anaesthetized with ethylurethane at 20 % (1.5 g/kg intraperitoneally) by intravenous injection of histamine ([…]/i.v.), of acetylcholine (40 μg/kg/i.v.), of bradykinine (5 μg/kg/i.v.) or of serotinine (20 μg/kg/i.v.).
(§4) .- The anti-bronchoconstriction properties were studied in an anaesthetized guinea-pig and in a vigil guinea-pig.
(§5) The antagonism exercised by the products studied to a bronchoconstriction due to an intravenous injection of acetylcholine, histamine or bradykinine was evaluated according to Konzett and Rossler's method.
(§6) The products studied were administered intraduodenally or intravenously.

gastric secretion [2] = assay: Gastric antisecretory activity, vigil rat, pyloric binding for 4 hours; assay type: in vivo; conditions: for ED50: Rattus norvegicus, 4 h, i.d.; for gastric antisecretory properties (in words): comparison with compound No. 7110 / patent No 3 862 177
Experimental: .- The gastric antisecretory activity was studied in a vigil rat fitted with a pyloric binding for 4 hours, according to Shay and al.
It was evaluated by diminutions in the volume, the concentration and the flow of free acid in the gastric juice. The compounds tested were administered intraduodenally.

Acute toxicity, mouse = conditions: in vivo
[3] = test system: morphinic respiratory depression; assay: Respiratory analeptic properties, vigil rabbit, morphinic respiratory depression; assay type: in vivo; conditions: for respiratory analeptic activity (in words): i.v., vigil rabbit, comparison with reference compound
Experimental: The compounds of formula (I) administered intravenously to a vigil rabbit, are capable of opposing morphinic respiratory depression (subcutaneous injection of 50 mg/kg of morphine hydrochloride).
.- Respiratory analeptic properties were studied in a vigil rabbit subjected to a morphinic respiratory depression. The products studied were administered intravenously.

[4] = test system: bronchoconstriction caused by bradykinine; assay: Anti-bronchoconstriction, anaesthetized guinea-pig, bradykinine i.v. (Konzett and Rossler); assay type: in vivo
Experimental: as §3, §4, §5, §6

Shay's ulcers = assay: Shay's ulcers, rat, binding the pylorus; assay type: in vivo; conditions: for anti-ulcerous properties (in words): comparison with compound No. 7110 / patent No 3 862 177
Experimental: (b) Shay's ulcers: the compounds of formula (I) administered intraduodenally reduce the area of ulcerations induce in a rat by binding the pylorus. Thus, compound code No 73 0466 administered in a dose of 20 mg/kg/i.d. reduces by 80 % Shay's ulcer.
as §1, §2

[5] = test system: bronchoconstriction caused by histamine; assay: Anti-bronchoconstriction, anaesthetized guinea-pig, histamine i.v. (Konzett and Rossler); assay type: in vivo; conditions: for Percentage of inhibition of the bronchoconstriction: histamine
Experimental: as §3, §4, §5, §6

[6] = test system: bronchospasm caused by histamine aerosol; assay: Protection of vigil guinea-pig against histamine aerosol bronchospasm; assay type: in vivo
Experimental: These properties are also observed by administering the compounds of formula (I) orally, to a vigil guinea-pig subjected to a histamine aerosol (exposition for 10 minutes to an aerosol obtained from an aqueous solution containing 0.4 % histamine and 10 % glycerine), the criterium of activity being the total protection from the fall caused by the bronchospasm.

[7] = test system: contracting effect of acetylcholine on the duodenum; assay: Spasmolytic, duodenum of rat, acetylcholine
Experimental: (§7) Compound code number 73 0457, introduced into the conserving medium, is capable of opposing the contractural action of histamine and bradykinine on the ileum of a guinea-pig, DI 50 being respectively 0.16 μg/ml and 3.1 μg/ml, prevents spasms in the uterus of a female rat induced by serotonine (DI 50= 0.8 μg/ml) and opposes the contracting effect of acetylcholine on the duodenum of a rat (DI 50= 0.8μg/ml).

[8] = test system: bronchoconstriction caused by serotonine; assay: Anti-bronchoconstriction, anaesthetized guinea-pig, serotonine i.v.; assay type: in vivo; conditions: Cavia porcellus, iv, compound i.v., read-out: DE 50 (the source's name)
Experimental: as §3

[9] = test system: contractural action of bradykinine on the ileum; assay: Spasmolytic, ileum of guinea-pig, bradykinine
Experimental: as §7

[10] = test system: bronchospasm caused by acetylcholine aerosol; assay: Protection of vigil guinea-pig against acetylcholine aerosol bronchospasm; assay type: in vivo
[11] = test system: contractural action of histamine on the ileum; assay: Spasmolytic, ileum of guinea-pig, histamine
Experimental: as §7

[12] = test system: spasms in the uterus induced by serotonine; assay: Spasmolytic, uterus of female rat, serotonine
Experimental: as §7

gastric secretion [13] = assay: Gastric antisecretory properties, anaesthetized rat with Shay binding; assay type: in vivo; conditions: 2 mg/kg i.d.
Source text: The compounds of formula (I), administered intraduodenally to an anaesthetized rat provided with a Shay binding are capable of reducing the gastric secretion.

[14] = acetylcholine, anaesthetized guinea-pig
[15] = read-out: Gastric antisecretory action, Volume, D.E. 50
[16] = po, 2000 mg/kg, p.o., 2 000 mg/kg, read-out: Percentage mortality, orally
[17] = acetylcholine i.v., 25 mg/kg i.d.

O=C(CCn1c(CN2CCN(CC=Cc3ccccc3)CC2)nc2ccccc21)c1ccccc1 [7 110, reference compound]
ED50 (constraint ulcers; Rattus norvegicus, po, 7 h, p.o., read-out: Anti-ulcerous action, Constraint ulcer for 7 hours, D.E. 50): 4.2 mg/kg
ED50 ([1]; acetylcholine i.v.): 2.4 mg/kg
Anti-bronchoconstriction action ([1]; acetylcholine i.v., 30 mg/kg i.d.): 0
activity by route of administration [1, 14]: acts solely intravenously
ED50 (gastric secretion [2]; [15]): 2.5 mg/kg
mortality (Acute toxicity, mouse; po, 4800 mg/kg, p.o., 4 800 mg/kg, read-out: Acute toxicity (p.o.), percentage mortality): 30%
Duration of effect ([3]; 4 mg/kg i.v.): 0 min
Percentage increase, respiratory amplitude ([3]; 4 mg/kg i.v.): 0%
Percentage increase, respiratory frequency ([3]; 4 mg/kg i.v.): 0%
ED50 ([4]; Cavia porcellus, bradykinine i.v., compound i.d., read-out: D.E. 50 (the source's name)): 30 mg/kg
ED50 (Shay's ulcers; Rattus norvegicus, i.d., read-out: Anti-ulcerous action, Shay's ulcer, D.E. 50): 28.5 mg/kg

O=C(CCn1c(CN2CCN(CC=Cc3ccccc3)CC2)nc2ccccc21)c1ccco1 [73 0457, dimaleate of 1-[2'-(α-furoyl)eth-1' yl]-2-(4"-cinnamylpiperazin 1" ylmethyl) benzimidazole]
Percentage of inhibition of the bronchoconstriction ([5]; 12.5 mg/kg i.d.): 100%
percentage of animals totally protected ([6]; 1.56 mg/kg p.o.): 50%
Duration ([6]; 100 mg/kg p.o.): > 6 h
Percentage of inhibition of the bronchoconstriction ([6]; 100 mg/kg p.o.): 100%
ED50 ([1]; acetylcholine i.v.): < 4 mg/kg
Anti-bronchoconstriction action, percentage ([1]; acetylcholine i.v., 0.0625 mg/kg i.v.): 63%
Percentage of inhibition of the bronchoconstriction ([1]; acetylcholine, 12.5 mg/kg i.d.): 70%
Duration ([1]; acetylcholine, 12.5 mg/kg i.d., Table I): > 90 min
Duration ([1]; acetylcholine, 12.5 mg/kg i.d., Table IV): > 90 min
times lower active dose than that of compound No. 7110 [1, 14]: 38 times
activity by route of administration [1, 14]: active in this same test, not only when administered intravenously but intraduodenally
anti-bronchoconstriction properties (in words) [1]: considerable anti-bronchoconstriction and respiratory analeptic properties
ED50 (gastric secretion [2]; read-out: Gastric antisecretory action, Free acid concentration, D.E. 50): 55 mg/kg
ED50 (gastric secretion [2]; read-out: Gastric antisecretory action, Free acid flow, D.E. 50): 15 mg/kg
ED50 (gastric secretion [2]; [15]): 11.5 mg/kg
gastric antisecretory properties (in words) (gastric secretion [2]): lower gastric antisecretory and anti-ulcerous activities
DI 50 [7]: 0.8 mg/L
mortality (Acute toxicity, mouse; iv, 48 mg/kg, i.v., at 48 ± 2.5 mg/kg, read-out: Percentage mortality, intravenously): ~50%
LD50 (Acute toxicity, mouse; iv, read-out: Dose administered (mouse), intravenously, DE 50): 48 ± 2.5 mg/kg
mortality (Acute toxicity, mouse; [16]): 0%
ED50 [8]: < 4 mg/kg
DI 50 [9]: 3.1 mg/L
percentage of animals totally protected ([10]; 12.5 mg/kg p.o.): 50%
DI 50 [11]: 0.16 mg/L
DI 50 [12]: 0.8 mg/L
Duration of effect ([3]; 10 mg/kg i.v.): 25 min
respiratory analeptic activity (in words) [3]: considerable respiratory analeptic activity; also recorded: considerable anti-bronchoconstriction and respiratory analeptic properties
Percentage of inhibition of the bronchoconstriction ([4]; bradykinine, 8 mg/kg i.v.): 75%
Anti-ulcerous action, Shay's ulcer (percentage of protection, quantal response) (Shay's ulcers; 50 mg/kg i.d.): 0
anti-ulcerous properties (in words) (Shay's ulcers): lower gastric antisecretory and anti-ulcerous activities

O=C(CCn1c(CN2CCN(CC=Cc3ccccc3)CC2)nc2ccccc21)c1cccs1 [73 0466, dimaleate of 1-[2'(α -thienoyl)eth-1'yl]-2-(4"-cinnamylpiperazin 1"ylmethyl)benzimidazole]
ED50 ([5]; Cavia porcellus, histamine i.v., compound i.d., read-out: D.E. 50 (the source's name)): 25 mg/kg
Percentage of inhibition of the bronchoconstriction ([5]; 25 mg/kg i.d.): 50%
percentage of animals totally protected ([6]; 50 mg/kg p.o.): 67%
reduction of the area of the ulcerations (constraint ulcers; 5 mg/kg p.o., constraint for 7 hours): 78%
Anti-bronchoconstriction action, percentage [1, 17]: 95%
Duration of anti-bronchoconstriction action [1, 17]: > 30 min
Duration ([1]; acetylcholine, 100 mg/kg i.d.): 60 min
Percentage of inhibition of the bronchoconstriction ([1]; acetylcholine, 100 mg/kg i.d.): 100%
activity by route of administration [1, 14]: active in this same test, not only when administered intravenously but intraduodenally
anti-bronchoconstriction properties (in words) [1]: considerable anti-bronchoconstriction and respiratory analeptic properties
Gastric antisecretory action, Free acid concentration (gastric secretion [2]; 2 mg/kg i.d.): inactive
gastric antisecretory properties (in words) (gastric secretion [2]): lower gastric antisecretory and anti-ulcerous activities
mortality (Acute toxicity, mouse; [16]): 30%
percentage of animals totally protected ([10]; 50 mg/kg p.o.): 100%
reduction of the volume of the gastric secretion (gastric secretion [13]): 28%
respiratory analeptic activity (in words) [3]: considerable anti-bronchoconstriction and respiratory analeptic properties
reduction of Shay's ulcer (area of ulcerations) (Shay's ulcers; 20 mg/kg i.d.): 80%
anti-ulcerous properties (in words) (Shay's ulcers): lower gastric antisecretory and anti-ulcerous activities

prethcamide [MICORENE, reference compound]
Duration of effect ([3]; 10 mg/kg i.v.): 7 min
